From US10787640B2, “Producing mesodermal cell types and methods of using the same” (The Board of Trustees of the Leland Stanford Junior …, priority 2015, dated 2020)

Key:
Type in all cases: cell-based, human
[1] = tested on: day 3 early somite progenitors; test: Patterning of early somite progenitors into sclerotome or dermomyotome; details: 21K with C59, 2-3 days
Protocol: Day 2 paraxial mesoderm was briefly washed (DMEM/F12) and further differentiated into day 3 early somite/somitomere precursors for 24 hours (1 μM A-83-01+250 nM LDN-193189+1 μM C59+500 nM PD0325901). Subsequently, day 3 early somites were dorsoventrally patterned into either ventral somites/sclerotome (5 nM 21K+1 μM C59) or dorsal somites/dermomyotome (3 μM CHIR99021+150 nM Vismodegib). Sclerotome induction was conducted for 48-72 hours (leading to day 5-6 ventral somite progenitors). […] Media was changed 24 hours for all steps. The Hedgehog agonist 21K, which has been previously described in, e.g., Brunton et al., 2009 the disclosure of which is incorporated herein by reference in its entirety, was commercially synthesized.
Day 3 early somites were briefly washed (DMEM/F12), treated with BMP4+CHIR99021+Vismodegib for 24 hours, washed again (DMEM/F12) and subsequently treated with CHIR99021 (3 μM)+21K (5 nM) for 24 hours. This day 5 dermomyotome was further empirically differentiated towards skeletal muscle-like progeny (using medium containing 2% horse serum, which has been previously described in, e.g., Xu et al. 2013, the disclosure of which is incorporated herein by reference in its entirety) for 12 days, yielding day 17 skeletal muscle-containing populations.
FIG. 11: A) To determine the length of time required for sclerotome differentiation, a qPCR timecourse was performed, encompassing undifferentiated hESCs (D0), day 2 hESC-derived paraxial mesoderm (D2 PXM), day 3 hESC-derived early somite progenitors, and hESC-derived day 3 early somite progenitors that were exposed to sclerotome inductive conditions (5 nM 21K+1 μM C59) for 24 or 48 hours. B) Description of EF1α-BCL2-T2A-GFP lentiviral construct (otherwise known as “C306”; top) and FACS plot of a stably-transduced polyclonal H9 hESC line with near-uniform expression of the BCL2-T2A-GFP transgene (green contour) by comparison to uncolored wild-type hESCs (bottom) (see above methods for details of derivation of the H9 BCL2-T2A-GFP hESC line). C) Higher-magnification picture of BCL2-T2A-GFP hESC-derived sclerotome ectopic bone grafts (originally described above in FIG. 4, panel E), showing that despite the near-ubiquitous expression of GFP throughout the ectopic bone graft (indicating its human provenance), the blood vessels are clearly GFP-negative and therefore presumably derived from the mouse host; scale bar=1 mm. […] L) Description of EF1a-BCL2-T2A-GFP lentiviral construct (otherwise known as “C306”; top) and FACS plot of a stably-transduced polyclonal H9 hESC line with near-uniform expression of the BCL2-T2A-GFP transgene (green contour) by comparison to uncolored wild-type hESCs (bottom) (see the methods described herein for details of derivation of the H9 BCL2-T2A-GFP hESC line). M) Description of UBC-Luciferase-T2A-tdTomato lentiviral construct (top); bioluminescent assay of cultured H9 UBC-Luciferase-T2A-tdTomato hESCs validates that these cells are luciferase-expressing in vitro (bottom).

[2] = tested on: hESC-derived lateral mesoderm; test: Lateral mesoderm patterning, qPCR
Protocol: Subsequently, day 1 anterior primitive streak was briefly washed (DMEM/F12) and differentiated towards day 2 paraxial mesoderm for 24 hours (1 μM A-83-01+3 μM CHIR99021+250 nM LDN-193189+20 ng/mL FGF2). Separately, day 1 mid primitive streak was differentiated towards day 2 lateral mesoderm for 24 hours (1 μM A-83-01+30 ng/mL BMP4+1 μM C59; with 2 μM SB-505124 sometimes used instead of A-83-01).
(§1) C) To reveal the possible identity of non-cardiac mesoderm lineages that were contaminating cardiac mesoderm-containing cultures, NKX2.5-GFP hESCs were differentiated towards mid primitive streak (day 1) and were differentiated towards a heterogeneous population containing cardiac mesoderm (day 3) by treatment with SB-505124+BMP4+C59 (without FGF2) on days 2-3 of differentiation. FACS was performed on day 3 to purify either NKX2.5-GFP^+ or NKX2.5-GFP^− cells (top subpanels) which were sorted for qPCR (bottom subpanels). Gene expression was normalized to expression of a gene in the NKX2.5-GFP^+ fraction (dotted line). D) Timecourse of gene expression in hESCs differentiating towards mid primitive streak and lateral mesoderm, with treatment by SB-505124+BMP4+C59 on days 2-3 of differentiation. […] G) To assess whether a stabilized vitamin C analog (ascorbic acid-2-phosphate) (AA2P) enhanced cardiac mesoderm differentiation into cardiomyocytes, day 4 hESC-derived cardiac mesoderm was exposed to BMP4 (30 ng/mL)+XAV939 (1 μM) for 48 hours in the presence or absence of 200 μg/mL AA2P and qPCR was conducted of day 6 populations; qPCR data were normalized such that expression values in the highest-expressing sample was normalized=1.0. […] J) In the mouse embryo, endocardium (progenitors to heart-affiliated endothelium) are marked by transient coexpression of pan-heart marker Nkx2.5 together with endothelial markers (Ferdous et al., 2009; Stanley et al., 2002).

[3] = tested on: day 3 hemogenic precursors; test: Hemogenic precursors into day 5 hematopoietic intermediates
Protocol: (§2) SOX17^mCherry/+ H9 hESCs (referred to as SOX17-mCherry hESCs throughout this study) were routinely propagated in mTeSR1 (StemCell Technologies)+1% penicillin/streptomycin. They were passaged ˜1:12-1:25 as fine clumps using Accutase (Gibco) onto plates precoated with a Geltrex substratum (Gibco) in mTeSR1 medium supplemented with thiazovivin ([…]; a ROCK inhibitor). After overnight plating, hESCs were washed (DMEM/F12) and differentiated towards posterior PS using BMP4 (15-40 ng/mL, R&D Systems), CHIR99021 ([…]), FGF2 (20 ng/mL, Invitrogen) and PIK90 (100 nM, Calbiochem) for 24 hours, with the optional inclusion of Activin (30 ng/mL, R&D Systems) to induce mid PS. Day 1 mid or posterior PS was subsequently washed (DMEM/F12) and further differentiated using BMP4 (40 ng/mL), GDC-0941 (0.25-2.5 μM, Cellagen Technology), Forskolin (10 μM, Tocris), SB-505124 ([…]), VEGF (100 ng/mL, R&D Systems), XAV939 (1 μM, Tocris) and ascorbic acid-2-phosphate (200 μg/mL, Sigma) for 24 hours. Day 2 cultures were further directed into the definitive hematopoietic lineage/hemogenic precursors by Activin A (15 ng/mL), GDC-0941 (0.25-2.5 μM), VEGF (100 ng/mL), XAV939 (1 μM) and ascorbic acid-2-phosphate (200 μg/mL) for 24 hours. Day 3 definitive hematopoietic progenitors were subsequently differentiated into early Runx1^lowGfi1^low hemogenic intermediates through day 4-5 treatment with BMP4 (50 ng/mL), TTNPB (500 nM), VEGF (100 ng/mL) and XAV939 (1 μM) for 48 hours, supplemented with SB-505124 (2 μM) on day 5. Day 5 populations were then dissociated into single cells, counted and reaggregated in individual wells of a low-adhesion V-bottom or U-bottom 96-well plate (e.g., Thermo Fisher, catalog no. 249952) with ˜15,000-20,000 cells seeded per well. Aggregates were cultured for 48 additional hours until day 7 in BMP4 (50 ng/mL), TTNPB (500 nM), VEGF (100 ng/mL), XAV939 (1 μM), SB-505124 (2 μM), SCF (25-50 ng/mL, R&D Systems), IL6 (10 ng/mL, R&D Systems) and IL6RA (250-1000 ng/mL, R&D Systems). All differentiation was conducted in serum-free CDM2 fully-defined basal media.

[4] = tested on: lateral mesoderm; test: Forelimb versus hindlimb progenitor specification from lateral mesoderm; details: RA signaling activated for 24 hours during lateral mesoderm induction (D1-2)
Protocol: Undifferentiated hPSCs (wild-type H7 as well as TBX5-Venus V19-2 H9 hESCs) were maintained in mTeSR1 media on Geltrex-coated plates. As described, they were differentiated into mid primitive streak for 24 hours (D0-1; 30 ng/mL Activin+40 ng/mL BMP4+6 μM CHIR99021+20 ng/mL FGF2+100 nM PIK90) and subsequently differentiated into lateral mesoderm (D1-2; 1 μM A-83-01+30 ng/mL BMP4+1 μM C59), with the inclusion of 50 nM of TTNPB or 2 μM ATRA on D1-2 for trunk lateral mesoderm that was subsequently competent for forelimb differentiation.
Day 2 trunk lateral mesoderm was differentiated into day 3 forelimb progenitors (D2-3; 1 μM A-83-01+1 μM DMH1+3 μM CHIR99021). By contrast, day 2 non-trunk lateral mesoderm was differentiated into day 3 hindlimb progenitors (D2-3; 25 ng/mL Activin+1 μM DMH1+3 μM CHIR99021).

[5] = tested on: SOX17-mCherry hESCs; test: Hematopoietic mesoderm and SOX17+CD34+ hemogenic precursor specification
Protocol: as §2

[6] = tested on: day 5 hematopoietic intermediates; test: Day 5-7 continued differentiation of hematopoietic intermediates, factor withholding; details: individually withholding the factor from the 8 factors, 48 hours
Protocol: as §2

[7] = tested on: hESC-derived cardiac mesoderm; test: Cardiac mesoderm differentiation into cardiovascular fates, qPCR; details: added to WNT blockade with BMP activation
Protocol: Day 2 lateral mesoderm was differentiated into day 4 cardiac mesoderm by treating them with 1 μM A8301+30 ng/mL BMP4+1 μM C59+20 ng/mL FGF2 for 48 hrs, or alternatively, with 1 μM A8301+30 ng/mL BMP4+20 ng/mL FGF2 for 24 hrs followed by 25 ng/mL Activin+30 ng/mL BMP4+1 μM C59 for the next 24 hrs (schema in FIG. 5E; positive effect of mid-stage Activin shown in FIG. 12K). Subsequently, day 4 cardiac mesoderm was briefly washed (DMEM/F12) and treated with 30 ng/mL BMP4+1 μM XAV939+200 μg/mL 2-phospho-ascorbic acid (Sigma) for 48-96 hrs to yield day 6-8 cardiomyocyte-containing populations. Spontaneously contracting cardiomyocyte foci were evident from day 8 onwards.
as §1

Compound: Cc1cc(-c2ccc(CC(=O)Nc3ccc(-c4cccnc4)cc3)cc2)ccn1 [C59, 4-(2-Methyl-4-pyridinyl)-N-[4-(3-pyridinyl)phenyl]benzeneacetamide]
- sclerotome fate induction [1]: efficiently induced the sclerotome fate
- lateral mesoderm fate (qPCR) ([2]; day 2 lateral mesoderm, SB-505124+BMP4 with CHIR99021 or C59, 24 hours): induced an anterior lateral mesoderm/cardiac mesoderm fate
- pan-lateral mesoderm marker FOXF1 expression ([2]; last 12 hrs C59 or 3 μM CHIR in addition to BS): not markedly changed

Compound: C/C(=C\c1ccc(C(=O)O)cc1)c1ccc2c(c1)C(C)(C)CCC2(C)C [TTNPB]
- TBX20 expression ([3]; day 5): important to downregulate TBX20 expression
- RUNX1 expression by day 5 ([3]; withdrawal of the factor from BMP, VEGF, XAV939, TTNPB): crippled RUNX1 expression
- forelimb transcription factor TBX5 expression on D3 [4]: paramount for lateral mesoderm to subsequently express key forelimb transcription factor TBX5

Compound: O=c1[nH]c(-c2ccc(C(F)(F)F)cc2)nc2c1CSCC2 [XAV939, 3,5,7,8-Tetrahydro-2-[4-(trifluoromethyl)phenyl]-4H-thiopyrano[4,3-d]pyrimidin-4-one]
- SOX17+ cells formed by day 3 ([5]; treatment on day 2-3, 24 hours): doubled the formation of SOX17^+ cells
- GATA1 expression ([3]; day 5): pivotal to prevent BMP-induced GATA1 expression
- GFI1B expression [6]: strongly diminished

Compound: O=C1O[C@H]([C@@H](O)CO)C(O)=C1OP(=O)(O)O [ascorbic acid-2-phosphate]
- cardiomyocyte differentiation [7]: further enhanced
- efficiency of CD34+ progenitors produced by day 3 ([5]; included on days 2 and 3): moderately enhanced the efficiency of CD34^+ progenitors
